# Reference: PMC6013238, “Development of novel NEMO-binding domain mimetics for inhibiting IKK/NF-κB activation” (PLoS Biology, 2018)
# “And” between values parts separate entries of the source, which are not always exact repeats. Equal entries are not always repeated.
# Assays:
# NF-κB target genes = assay: LPS-induced acute inflammation, qRT-PCR of NF-κB target genes in lung and liver; format: in vivo, mouse
# Description: Fig 6 Newly identified NBD mimetics suppress LPS-induced acute inflammation in vivo. (A) The bioavailability property of SR12460, SR12343, SR12454, and SR11481. Concentrations of NBD mimetics were determined in plasma, brain, muscle, spleen, and liver 2 h post a single i.p. injection of 10 mg/kg of drugs; n = 3 per group. (B) Shown is the model to induce LPS-mediated acute inflammation and the treatment regimen with NBD mimetics. Mouse image via http://www.clker.com/clipart-mice-blank.html (copyright-free). (C) NBD mimetics suppressed LPS-induced acute inflammation in liver and lung by down-regulating NF-κB target gene expression. Vehicle, SR12343, SR12460, and 8K-NBD peptide were dosed at 10 mg/kg 30 min prior to the LPS treatment. Acute inflammation was induced by i.p. injection of 10 mg/kg LPS. Lung and liver were collected 2–4 h post injection, and mRNA was extracted for qRT-PCR analysis. (D, E) Western blot analysis was performed to probe for the expression of p-IκBα and COX-2 at protein level in liver and lung tissues. (F) Serum levels of IL-6 were determine by ELISA. n = 3–8 each group. *P < 0.05, **P < 0.01. Underlying data can be found in S1 Data. COX-2, cyclooxygenase 2; IL-6, interleukin 6; i.p., intraperitoneal; LPS, lipopolysaccharide; NBD, NEMO-binding domain; n.d., nondetectable; NEMO, NF-κB essential modulator; NF-κB, nuclear factor κB; qRT-PCR, quantitative real-time polymerase chain reaction. TEXT PRINTED IN THE PICTURE: (A) SR11481: Concentration (ng/ml): n.d. (plasma)
# To determine their NF-κB inhibitory effects in vivo, SR12343 and SR12460 were tested in an acute model of LPS-induced systemic endotoxemia. C57BL/6J mice were pretreated with vehicle control, 8K-NBD peptide, or NBD mimetics at 10 mg/kg for 30 min, followed by LPS induction at 10 mg/kg (Fig 6B). Lung and liver were harvested 2–4 h post treatment for qRT-PCR analysis of NF-κB target genes. […] Despite lower plasma and tissue concentrations of SR12343 compared to SR12460, its inhibition of NF-κB/IKK in liver and lung were greater than that of SR12460 (Fig 6C). Similarly, acute treatment with SR12343 also affected the LPS-induced expression of NF-κB target genes at protein level. The extent of phosphorylation of IκBα and the levels of COX-2 were reduced in lung and liver tissues treated with SR12343 (Fig 6D and 6E). […] However, no significant differences in lung histopathology were observed. Finally, there was a slight reduction in the number of white blood cells and neutrophils in the SR12343-treated group (Table 2).
# LPS (strain O111:B4) was prepared in PBS at a sublethal dose of 10 mg/kg. Female WT mice 8 to 10 wk old (20–30 g) were dosed by i.p. injection with vehicle, NBD peptide (10 mg/kg), or small molecules (10 mg/kg) for 30 min, followed by i.p. injection of saline (1 mL/kg) or LPS (10 mg/kg). Mice were euthanized 2 to 4 h post treatment, and lung and liver tissues were collected for further analysis.
# Snap-frozen tissues were preserved in RNAlater RNA stabilization solution (ThermoFisher). Total RNA was extracted from cells or tissues by using TRIZOL reagent (Life Technologies), and 1,500 ng of mRNA was subjected to synthesis of cDNA using SuperScript VILO cDNA synthesis kit. qRT-PCR was performed in a StepOnePlus Real-Time PCR system using Platinum SYBR Green qPCR SuperMix-UDG (ThermoFisher). Target gene expression was calculated using the comparative CT method (ΔΔCT) by normalizing to an internal control gene Actb (β-actin). […]
# NF-κB activation = assay: NF-κB firefly luciferase reporter assay, TNF-α-stimulated stably transfected HEK293 cells; format: cell-based, human; conditions: for NF-κB luciferase activity normalized to vehicle: Fig 2C, derivatives at 100 μM, TNF-α 10 ng/ml 3 h, vehicle = 100, single experiments; for NF-κB luciferase activity normalized to control: control = 100
# Description: To determine whether the small molecules identified by the in silico screening inhibit NF-κB activation, a HEK293 cell line stably expressing a luciferase reporter driven by a synthetic, NF-κB-dependent promoter was utilized. To induce NF-κB activation, cells were treated with 10 ng/mL of TNF-α and harvested 3 h post treatment for analysis of luciferase activity. […] To determine whether ZINC12909780 inhibits NF-κB in a dose-dependent manner, concentrations were tested at 0, 6.25, 25, 50, and 100 μM.
# Luciferase activity was normalized to untreated stimulated control cells. […] Cell viability was calculated by normalizing to untreated cells. […] Underlying data can be found in S1 Data.
# HEK293 cells stably transfected with luciferase reporter plasmid driven by NF-κB were seeded in 96-well plates in triplicate and pretreated with DMSO or varying small molecules at indicated concentration for 30 min, followed by the stimulation of 10 ng/ml of TNF-α for 3 h. Cells were washed with PBS once and harvested in Passive Lysis Buffer (Promega, Madison, WI). Luciferase assay (Promega) was performed by using a luminometer according to the manufacturer’s instructions.
# [1] = Fig 6C, 10 mg/kg 30 min before LPS 10 mg/kg i.p., 2-4 h, single mice
smiles,measurement,setting,value
O=C(CNc1ccc(Cl)cn1)NCCc1cccc(Br)c1 [SR12343],"NF-κB transcriptional activity in lung (iNOS, IκBα, COX-2, IL-6)","NF-κB target genes; 10 mg/kg, LPS 10 mg/kg",significantly inhibit
same,"ikBa mRNA in liver (qRT-PCR, relative to vehicle)",NF-κB target genes; [1],1.072 and 1.242 and 1.317 and 1.467 and 0.7748 and 0.7346 and 1.371
same,"ikBa mRNA in lung (qRT-PCR, relative to vehicle)",NF-κB target genes; [1],0.8689 and 0.6292 and 0.6865 and 0.9681 and 0.6797 and 1.015 and 0.7177
O=C(CNCCc1cc(F)cc(F)c1)Nc1ccc(Cl)cn1 [SR12460],"iNOS mRNA in lung (qRT-PCR, relative to vehicle)",NF-κB target genes; [1],0.4025 and 0.5396 and 0.4809 and 0.7846 and 0.6512 and 0.5854 and 0.4587 and 0.5387
same,"ikBa mRNA in lung (qRT-PCR, relative to vehicle)",NF-κB target genes; [1],0.8864 and 1.179 and 0.7265 and 0.7577 and 0.6496 and 0.9355 and 0.7819
O=C(COC(=O)Cc1ccccc1F)Nc1ccc(Cl)cn1 [ZINC5],NF-κB luciferase activity normalized to vehicle,NF-κB activation,58.79 and 64.16 and 89.81 and 46.87 and 48.05
same,NF-κB luciferase activity normalized to vehicle,NF-κB activation; listed as Zinc5,lowered NF-κB activity robustly
same,NF-κB luciferase activity normalized to control,"NF-κB activation; Fig 2E, 25 μM",78.88 and 74.23 and 94.1 and 85.57 and 85.27
same,NF-κB luciferase activity normalized to control,"NF-κB activation; Fig 2E, 50 μM",78.97 and 56.84 and 56.56 and 66.34
same,NF-κB luciferase activity normalized to control,"NF-κB activation; Fig 2E, 100 μM",40.8 and 50.51 and 60.75 and 33.05 and 42.78
Nc1ncccc1C(=O)OCC(=O)Nc1ccc(Cl)cc1F [ZINC12909780],NF-κB luciferase activity normalized to control,"NF-κB activation; Fig 2B, 6.25 μM (log 0.79588)",96.2175 and 102.44 and 115.164
same,NF-κB luciferase activity normalized to control,"NF-κB activation; Fig 2B, 25 μM (log 1.39794)",93.2591 and 96.1802 and 73.5256
